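Five compound concentrations were applied to cells in 96-well plates for 48 hours; endpoints were derived by simple linear interpolation of the resulting dose-response curve. TGI denotes the concentration required for complete inhibition of growth.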
Assays:
Experiment in all cases: NCI-60 cell line screen, 48 h
CAKI-1 renal = system: CAKI-1 renal
NCI-H460 lung = system: NCI-H460 lung
OVCAR-8 ovarian = system: OVCAR-8 ovarian
UACC-62 melanoma = system: UACC-62 melanoma
M14 melanoma = system: M14 melanoma
HCT-15 colon = system: HCT-15 colon
786-0 renal = system: 786-0 renal
OVCAR-5 ovarian = system: OVCAR-5 ovarian
BT-549 breast = system: BT-549 breast
A549 NSCLC = system: A549 NSCLC
SF-268 CNS = system: SF-268 CNS
LOX IMVI melanoma = system: LOX IMVI melanoma
NCI-H522 lung = system: NCI-H522 lung
SN12C renal = system: SN12C renal
MALME-3M melanoma = system: MALME-3M melanoma
SK-MEL-2 melanoma = system: SK-MEL-2 melanoma
RPMI-8226 leukemia = system: RPMI-8226 leukemia
MDA-MB-231 breast = system: MDA-MB-231 breast
SF-539 CNS = system: SF-539 CNS
PC-3 prostate = system: PC-3 prostate
HS 578T breast = system: HS 578T breast
HCC-2998 colon = system: HCC-2998 colon
HT29 colon = system: HT29 colon
DU-145 prostate = system: DU-145 prostate
IGROV1 ovarian = system: IGROV1 ovarian
SNB-19 CNS = system: SNB-19 CNS
SK-OV-3 ovarian = system: SK-OV-3 ovarian
SW-620 colon = system: SW-620 colon
K-562 leukemia = system: K-562 leukemia
COLO 205 colon = system: COLO 205 colon
HCT-116 colon = system: HCT-116 colon
SR leukemia = system: SR leukemia
ACHN renal = system: ACHN renal
SF-295 CNS = system: SF-295 CNS
OVCAR-3 ovarian = system: OVCAR-3 ovarian
SK-MEL-5 melanoma = system: SK-MEL-5 melanoma
NCI-H23 lung = system: NCI-H23 lung
CCRF-CEM leukemia = system: CCRF-CEM leukemia
HOP-92 NSCLC = system: HOP-92 NSCLC
HOP-62 NSCLC = system: HOP-62 NSCLC
UO-31 renal = system: UO-31 renal
MOLT-4 leukemia = system: MOLT-4 leukemia
MDA-MB-435 = system: MDA-MB-435
HL-60(TB) leukemia = system: HL-60(TB) leukemia
SK-MEL-28 melanoma = system: SK-MEL-28 melanoma
UACC-257 melanoma = system: UACC-257 melanoma
KM12 colon = system: KM12 colon
EKVX NSCLC = system: EKVX NSCLC
A498 renal = system: A498 renal
NCI/ADR-RES ovarian = system: NCI/ADR-RES ovarian
MCF7 breast = system: MCF7 breast
NCI-H226 lung = system: NCI-H226 lung
MDA-N = system: MDA-N
RXF 393 renal = system: RXF 393 renal
U251 CNS = system: U251 CNS
OVCAR-4 ovarian = system: OVCAR-4 ovarian
T-47D breast = system: T-47D breast
TK-10 renal = system: TK-10 renal
SNB-75 CNS = system: SNB-75 CNS

Measured: TGI

O=[N+]([O-])c1ccc2ncccc2c1CCc1c([N+](=O)[O-])ccc2ncccc12
> 100 µM: all assays above

Cc1ncc([N+](=O)[O-])n1CCNC(=O)CCCCCn1ccnc1[N+](=O)[O-]
not listed: LOX IMVI melanoma | RPMI-8226 leukemia | HOP-92 NSCLC | SK-MEL-28 melanoma | EKVX NSCLC | RXF 393 renal | OVCAR-4 ovarian | TK-10 renal
> 100 µM: all other assays above

C#CCOC(=O)C(N)CCSC (configuration not stated)
not listed: NCI-H460 lung | HCT-15 colon | SF-539 CNS | HCC-2998 colon | SNB-19 CNS | K-562 leukemia | OVCAR-4 ovarian
> 100 µM: all other assays above

— PubChem BioAssay (NCI)
